How the values were obtained:
[1] = log P determination by HPLC retention times (alkan-2-one calibration); conditions: preparation examples in the text
Pyrenophora teres = Pyrenophora teres test (barley)/protective; type: in vivo; conditions: in vivo
Experimental: Solvent: 49 parts by weight of N,N-dimethylformamide
Emulsifier: 1 part by weight of alkylaryl polyglycol ether
To produce a suitable preparation of active compounds, 1 part by weight of active compound is mixed with the stated amounts of solvent and emulsifier, and the concentrate is diluted with water to the desired concentration.
To test for protective activity, young barley plants are sprayed with the active compound preparation at the stated application rate. 1 day after the treatment, the plants are inoculated with an aqueous spore suspension of Pyrenophora teres and then remain at 100% rel. atmospheric humidity and 22° C. for 48 h. The plants are then placed in a greenhouse at 80% rel. atmospheric humidity and a temperature of 20° C.
Evaluation is carried out 7-9 days after the inoculation. 0% means an efficacy which corresponds to that of the control, whereas an efficacy of 100% means that no infection is observed.

In the case of COC(=O)CC(=NN1CCC(C)C1=O)c1ccc(F)cc1 (centres unmarked), the chromatographic logP ([1]; log P(HCOOH), HCOOH) is reported as 2.09.

Work on CC(CCC(=O)NN=C(c1ccccc1)c1ccccc1)OS(C)(=O)=O (centres unmarked) [5-[2-(diphenylmethylene)hydrazino]-5-oxopentan-2-yl methanesulphonate] yielded a chromatographic logP ([1]; log P(HCOOH), HCOOH) of 2.82.

Work on CC(C)CNc1cc(-c2c(-c3ccccc3)nn3c2CCC3)ccn1 [Example 72] yielded an efficacy in % (Pyrenophora teres) of 80%.

CC(C)CNc1cc(-c2c(-c3cccc(F)c3)nn3c2CCC3)ccn1 [Example 73] showed an efficacy in % (Pyrenophora teres) of 70%.

Work on Nc1cc(-c2c(-c3ccc(F)cc3)nn3c2CCOC3)ccn1 [Example 103] yielded an efficacy in % (Pyrenophora teres) of 90%.

For CC(C)CC(=O)Nc1cc(-c2c(-c3ccc(F)cc3)nn3c2CCOC3(C)C)ccn1 [Example 105], the efficacy in % (Pyrenophora teres) was 95%.

FC(F)(F)c1ccc(C#Cc2ccncc2)cc1 [II-1, 4-{[4-(Trifluoromethyl)phenyl]ethynyl}pyridine] showed a chromatographic logP ([1]; log P(HCOOH), HCOOH) of 2.86.

In the case of FC(F)(F)c1cccc(C#Cc2ccncc2)c1 [II-2, 4-{[3-(Trifluoromethyl)phenyl]ethynyl}pyridine], the chromatographic logP ([1]; pH 7, log P(pH7), pH7) is reported as 3.5.

In the case of COc1ccc(C#Cc2ccncc2)cc1 [II-3, 4-{[4-(Methoxy)phenyl]ethynyl}pyridine], the chromatographic logP ([1]; pH 7, log P(pH7), pH7) is reported as 2.68.

For Fc1ccc(C#Cc2ccncc2)cc1 [II-4, 4-{[4-Fluorophenyl]ethynyl}pyridine], the chromatographic logP ([1]; pH 7, log P(pH7), pH7) was 2.81.

With Clc1ccc(C#Cc2ccncc2)cc1 [II-5, 4-{[4-Chlorophenyl]ethynyl}pyridine] the chromatographic logP ([1]; log P(HCOOH), HCOOH) was 2.43.

For Fc1ccc(C#Cc2ccnc(Cl)c2)cc1 [II-6, 2-Chloro-4-[(4-fluorophenyl)ethynyl]pyridine], the chromatographic logP ([1]; log P(HCOOH), HCOOH) was 3.8.

For [O-]c1on[n+]2c1CCCCC2 [III-1, 5,6,7,8-Tetrahydro-4H-[1,2,3]oxadiazolo[3,4-a]azepin-9-ium 3-olate], the chromatographic logP ([1]; log P(HCOOH), HCOOH) was 0.6.

Work on [O-]c1on[n+]2c1CCCC2 [III-2, 4,5,6,7-Tetrahydro[1,2,3]oxadiazolo[3,4-a]pyridin-8-ium 3-olate] yielded a chromatographic logP ([1]; log P(HCOOH), HCOOH) of 0.59.

Work on CC(C)(C)OC1Cc2c([O-])on[n+]2C1 (centres unmarked) [III-4, 5-tert-Butoxy-5,6-dihydro-4H-pyrrolo[1,2-c][1,2,3]oxadiazol-7-ium 3-olate] yielded a chromatographic logP ([1]; log P(HCOOH), HCOOH) of 1.34.

With Fc1ccc(-c2cc3n(n2)CCCC3)cc1 [VII-1, 2-(4-Fluorophenyl)-4,5,6,7-tetrahydropyrazolo[1,5-a]pyridine] the chromatographic logP ([1]; log P(HCOOH), HCOOH) was 2.76.

c1ccc(-c2cc3n(n2)CCC3)cc1 [VII-2, 2-(Phenyl)-5,6-dihydro-4H-pyrrolo[1,2-b]pyrazole] gave a chromatographic logP ([1]; log P(HCOOH), HCOOH) of 2.19.

In the case of Clc1ccc(-c2cc3n(n2)CCC3)cc1 [VII-4, 2-(4-Chlorophenyl)-5,6-dihydro-4H-pyrrolo[1,2-b]pyrazole], the chromatographic logP ([1]; log P(HCOOH), HCOOH) is reported as 2.86.

In the case of c1ccc(-c2cc3n(n2)CCCC3)cc1 [VII-5, 2-(Phenyl)-4,5,6,7-tetrahydropyrazolo[1,5-a]pyridine], the chromatographic logP ([1]; log P(HCOOH), HCOOH) is reported as 2.57.

For FC(F)(F)c1cccc(-c2cc3n(n2)CCC3)c1 [VII-6, 2-[3-(Trifluoromethyl)phenyl]-5,6-dihydro-4H-pyrrolo[1,2-b]pyrazole], the chromatographic logP ([1]; log P(HCOOH), HCOOH) was 3.25.

COc1ccc(-c2cc3n(n2)CCC3)cc1 [VII-7, 2-[4-(Methoxy)phenyl]-5,6-dihydro-4H-pyrrolo[1,2-b]pyrazole] showed a chromatographic logP ([1]; log P(HCOOH), HCOOH) of 2.17.

Cc1ccc(-c2cc3n(n2)CCC3)cc1 [VII-8, 2-[4-Methylphenyl]-5,6-dihydro-4H-pyrrolo[1,2-b]pyrazole] gave a chromatographic logP ([1]; log P(HCOOH), HCOOH) of 2.64.

For FC(F)(F)c1ccc(-c2cc3n(n2)CCC3)cc1 [VII-9, 2-[4-(Trifluoromethyl)phenyl]-5,6-dihydro-4H-pyrrolo[1,2-b]pyrazole], the chromatographic logP ([1]; log P(HCOOH), HCOOH) was 3.2.

Fc1cccc(-c2cc3n(n2)CCC3)c1 [VII-10, 2-[3-Fluorophenyl]-5,6-dihydro-4H-pyrrolo[1,2-b]pyrazole] showed a chromatographic logP ([1]; log P(HCOOH), HCOOH) of 2.46.

With c1csc(-c2cc3n(n2)CCCC3)c1 [VII-11, 2-(2-Thienyl)-4,5,6,7-tetrahydropyrazolo[1,5-a]pyridine] the chromatographic logP ([1]; log P(HCOOH), HCOOH) was 2.42.

With c1cc(-c2cc3n(n2)CCCC3)cs1 [VII-12, 2-(3-Thienyl)-4,5,6,7-tetrahydropyrazolo[1,5-a]pyridine] the chromatographic logP ([1]; log P(HCOOH), HCOOH) was 2.25.

c1cc(-c2cc3n(n2)CCC3)cs1 [VII-13, 2-[3-Thienyl]-5,6-dihydro-4H-pyrrolo[1,2-b]pyrazole] showed a chromatographic logP ([1]; log P(HCOOH), HCOOH) of 2.01.

Work on Fc1ccc(-c2nn3c(c2I)CCCC3)cc1 [VIII-1, 2-(4-Fluorophenyl)-3-iodo-4,5,6,7-tetrahydropyrazolo[1,5-a]pyridine] yielded a chromatographic logP ([1]; log P(HCOOH), HCOOH) of 3.79.

Fc1ccc(-c2nn3c(c2I)CCCCC3)cc1 [VIII-2, 2-(4-Fluorophenyl)-3-iodo-5,6,7,8-tetrahydro-4H-pyrazolo[1,5-a]azepine] gave a chromatographic logP ([1]; log P(HCOOH), HCOOH) of 4.35.

FC(F)(F)c1cccc(-c2nn3c(c2I)CCC3)c1 [VIII-3, 2-[3-(Trifluoromethyl)phenyl]-3-iodo-5,6-dihydro-4H-pyrrolo[1,2-b]pyrazole] showed a chromatographic logP ([1]; log P(HCOOH), HCOOH) of 4.11.

Work on Clc1ccc(-c2nn3c(c2I)CCC3)cc1 [VIII-4, 2-(4-Chlorophenyl)-3-iodo-5,6-dihydro-4H-pyrrolo[1,2-b]pyrazole] yielded a chromatographic logP ([1]; log P(HCOOH), HCOOH) of 3.88.

Ic1c(-c2ccccc2)nn2c1CCC2 [VIII-5, 2-(Phenyl)-3-iodo-5,6-dihydro-4H-pyrrolo[1,2-b]pyrazole] gave a chromatographic logP ([1]; log P(HCOOH), HCOOH) of 3.09.

Fc1ccc(-c2nn3c(c2I)CCC3)cc1 [VIII-6, 2-(4-Fluorophenyl)-3-iodo-5,6-dihydro-4H-pyrrolo[1,2-b]pyrazole] gave a chromatographic logP ([1]; log P(HCOOH), HCOOH) of 3.3.

Cc1ccc(-c2nn3c(c2I)CCC3)cc1 [VIII-7, 2-[4-Methylphenyl]-3-iodo-5,6-dihydro-4H-pyrrolo[1,2-b]pyrazole] gave a chromatographic logP ([1]; log P(HCOOH), HCOOH) of 3.54.

Molecule Ic1c(-c2ccsc2)nn2c1CCC2 [VIII-8, 2-[3-Thienyl]-3-iodo-5,6-dihydro-4H-pyrrolo[1,2-b]pyrazole] has a chromatographic logP ([1]; log P(HCOOH), HCOOH) of 2.97.

Work on COc1ccc(-c2nn3c(c2I)CCC3)cc1 [VIII-9, 2-[4-(Methoxy)phenyl]-3-iodo-5,6-dihydro-4H-pyrrolo[1,2-b]pyrazole] yielded a chromatographic logP ([1]; log P(HCOOH), HCOOH) of 3.01.

In the case of FC(F)(F)c1ccc(-c2nn3c(c2I)CCC3)cc1 [VIII-10, 2-[4-(Trifluoromethyl)phenyl]-3-iodo-5,6-dihydro-4H-pyrrolo[1,2-b]pyrazole], the chromatographic logP ([1]; log P(HCOOH), HCOOH) is reported as 4.13.

Fc1cccc(-c2nn3c(c2I)CCC3)c1 [VIII-11, 2-[3-Fluorophenyl]-3-iodo-5,6-dihydro-4H-pyrrolo[1,2-b]pyrazole] showed a chromatographic logP ([1]; log P(HCOOH), HCOOH) of 3.32.

Molecule Ic1c(-c2ccccc2)nn2c1CCCC2 [VIII-12, 2-(Phenyl)-3-iodo-4,5,6,7-tetrahydropyrazolo[1,5-a]pyridine] has a chromatographic logP ([1]; log P(HCOOH), HCOOH) of 3.55.

Molecule Ic1c(-c2cccs2)nn2c1CCCC2 [VIII-13, 2-(2-Thienyl)-3-iodo-4,5,6,7-tetrahydropyrazolo[1,5-a]pyridine] has a chromatographic logP ([1]; log P(HCOOH), HCOOH) of 3.45.

Work on Ic1c(-c2ccsc2)nn2c1CCCC2 [VIII-14, 2-(3-Thienyl)-3-iodo-4,5,6,7-tetrahydropyrazolo[1,5-a]pyridine] yielded a chromatographic logP ([1]; log P(HCOOH), HCOOH) of 3.4.

With Ic1c(-c2ccccc2)nn2c1COCC2 [VIII-15, 3-Iodo-2-phenyl-6,7-dihydro-4H-pyrazolo[5,1-c][1,4]oxazine] the chromatographic logP ([1]; log P(HCOOH), HCOOH) was 2.82.

For CC1(C)OCCc2c(I)c(-c3ccc(F)cc3)nn21 [VIII-16, 2-(4-Fluorophenyl)-3-iodo-7,7-dimethyl-4,5-dihydropyrazolo[1,5-c][1,3]oxazine], the chromatographic logP ([1]; log P(HCOOH), HCOOH) was 4.28.

With Fc1ccc(-c2nn3c(c2Br)COCC3)cc1 [VIII-17, 3-Bromo-2-(4-fluorophenyl)-6,7-dihydro-4H-pyrazolo[5,1-c][1,4]oxazine] the chromatographic logP ([1]; log P(HCOOH), HCOOH) was 2.9.

Brc1c(-c2ccccc2)nn2c1CSCC2 [VIII-18, 3-Bromo-2-phenyl-6,7-dihydro-4H-pyrazolo[5,1-c][1,4]thiazine] gave a chromatographic logP ([1]; log P(HCOOH), HCOOH) of 3.42.

For CC1CCc2c(I)c(-c3ccc(F)cc3)nn21 (centres unmarked) [VIII-19, 2-(4-Fluorophenyl)-3-iodo-6-methyl-5,6-dihydro-4H-pyrrolo[1,2-b]pyrazole], the chromatographic logP ([1]; log P(HCOOH), HCOOH) was 3.82.

In the case of CC1CCc2c(Br)c(-c3ccc(F)cc3)nn21 (centres unmarked) [VIII-20, 2-(4-Fluorophenyl)-3-bromo-6-methyl-5,6-dihydro-4H-pyrrolo[1,2-b]pyrazole], the chromatographic logP ([1]; log P(HCOOH), HCOOH) is reported as 3.77.

With CC1CCn2nc(-c3ccc(F)cc3)c(I)c21 (centres unmarked) [VIII-21, 2-(4-Fluorophenyl)-3-iodo-4-methyl-5,6-dihydro-4H-pyrrolo[1,2-b]pyrazole] the chromatographic logP ([1]; log P(HCOOH), HCOOH) was 3.67.

Work on Fc1ccccc1-c1nn2c(c1Br)CCC2 [VIII-22, 3-Bromo-2-(2-fluorophenyl)-5,6-dihydro-4H-pyrrolo[1,2-b]pyrazole] yielded a chromatographic logP ([1]; log P(HCOOH), HCOOH) of 2.81.

With Fc1ccc(-c2nn3c(c2I)CCOC3)cc1 [VIIIa-1, 2-(4-Fluorophenyl)-3-iodo-4,5-dihydropyrazolo[1,5-c][1,3]oxazine] the chromatographic logP ([1]; log P(HCOOH), HCOOH) was 3.23.

Molecule Fc1ccc(-c2cc3n(n2)CCOC3)cc1 [VIIa-1, 2-(4-Fluorophenyl)-6,7-dihydro-4H-pyrazolo[5,1-c][1,4]oxazine] has a chromatographic logP ([1]; log P(HCOOH), HCOOH) of 2.01.

Work on c1ccc(-c2cc3n(n2)CCSC3)cc1 [VIIb-1, 2-Phenyl-6,7-dihydro-4H-pyrazolo[5,1-c][1,4]thiazine] yielded a chromatographic logP ([1]; log P(HCOOH), HCOOH) of 2.46.

Work on COC(=O)c1cc(-c2ccc(F)cc2)nn1CCCl [XI-1, Methyl 1-(2-chloroethyl)-3-(4-fluorophenyl)-1H-pyrazole-5-carboxylate] yielded a chromatographic logP ([1]; log P(HCOOH), HCOOH) of 3.58.

OCc1cc(-c2ccc(F)cc2)nn1CCCl [XIII-1, [1-(2-Chloroethyl)-3-(4-fluorophenyl)-1H-pyrazol-5-yl]methanol] showed a chromatographic logP ([1]; log P(HCOOH), HCOOH) of 1.84.

OCc1cc(-c2ccccc2)n[nH]1 [XIV-1, (3-Phenyl-1H-pyrazol-5-yl)methanol] gave a chromatographic logP ([1]; log P(HCOOH), HCOOH) of 1.14.

For ClCc1cc(-c2ccccc2)n[nH]1 [XV-1, 5-(Chloromethyl)-3-phenyl-1H-pyrazole], the chromatographic logP ([1]; log P(HCOOH), HCOOH) was 2.05.

Reference: patent US8507472B2 (priority 2010, dated 2013)
